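Cells were grown in 96-well plates and exposed to each compound for 48 hours at five concentrations; endpoints were interpolated linearly between bracketing concentrations, or set to the highest concentration if not reached. GI50: concentration for 50% inhibition of growth.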 Calls of active or inactive are those of the source. No stated cut-off is given here; in the data, active = GI50 up to about 1.1 µM and inactive = higher.
How the values were obtained:
Assay in all cases: DTP human tumour cell line panel, 48 h
[1] = tested on: HOP-62
[2] = tested on: IGROV-1
[3] = tested on: DU-145
[4] = tested on: A549
[5] = tested on: M14
[6] = tested on: MDA-MB-435
[7] = tested on: SW-620
[8] = tested on: CAKI-1
[9] = tested on: RXF 393
[10] = tested on: SK-MEL-28
[11] = tested on: EKVX
[12] = tested on: Malme-3M
[13] = tested on: MOLT-4
[14] = tested on: Hs-578T
[15] = tested on: OVCAR-8
[16] = tested on: ACHN
[17] = tested on: SF-539
[18] = tested on: SR
[19] = tested on: SNB-75
[20] = tested on: MDA-MB-231

Structure (SMILES) | GI50 [1] | GI50 [2] | GI50 [3] | GI50 [4] | GI50 [5] | GI50 [6] | GI50 [7] | GI50 [8] | GI50 [9] | GI50 [10] | GI50 [11] | GI50 [12] | GI50 [13] | GI50 [14] | GI50 [15] | GI50 [16] | GI50 [17] | GI50 [18] | GI50 [19] | GI50 [20]
O=C(CSCC(=O)N/N=C\c1cc(Br)cc(Br)c1O)N/N=C\c1cc(Br)cc(Br)c1O | 29.9 µM (inactive) | 16.6 µM (inactive) | 62.4 µM (inactive) | 76.6 µM (inactive) | 11.6 µM (inactive) | 40.9 µM (inactive) | 37 µM (inactive) | 23.4 µM (inactive) | 83.9 µM (inactive) | 26.4 µM (inactive) | 37.1 µM (inactive) | 14.4 µM (inactive) | 13 µM (inactive) | 16.1 µM (inactive) | 18.9 µM (inactive) | 12.9 µM (inactive) | 20 µM (inactive) | 15 µM (inactive) | 24 µM (inactive) | –
O=C1CC2C=CC1C2CO (configuration not stated) | > 100 µM (inactive) | > 100 µM (inactive) | – | > 100 µM (inactive) | > 100 µM (inactive) | – | > 100 µM (inactive) | > 100 µM (inactive) | > 100 µM (inactive) | > 100 µM (inactive) | > 100 µM (inactive) | > 100 µM (inactive) | > 100 µM (inactive) | – | > 100 µM (inactive) | > 100 µM (inactive) | > 100 µM (inactive) | > 100 µM (inactive) | > 100 µM (inactive) | –
CCOC(=O)c1c(N)sc2c1C(C(=O)OCC)CC2 (configuration not stated) | > 100 µM (inactive) | 44.7 µM (inactive) | – | > 100 µM (inactive) | > 100 µM (inactive) | – | > 100 µM (inactive) | – | > 100 µM (inactive) | > 100 µM (inactive) | > 100 µM (inactive) | 74.1 µM (inactive) | 35.6 µM (inactive) | 93.8 µM (inactive) | > 100 µM (inactive) | > 100 µM (inactive) | – | 40 µM (inactive) | 79.3 µM (inactive) | 76.7 µM (inactive)
CC(C)(C)OC(=O)C1CC[C@@H](CC(=O)Oc2ccc([N+](=O)[O-])cc2)N1 (some centres not stated) | – | > 100 µM (inactive) | > 100 µM (inactive) | > 100 µM (inactive) | > 100 µM (inactive) | > 100 µM (inactive) | > 100 µM (inactive) | > 100 µM (inactive) | > 100 µM (inactive) | > 100 µM (inactive) | > 100 µM (inactive) | > 100 µM (inactive) | > 100 µM (inactive) | – | > 100 µM (inactive) | > 100 µM (inactive) | > 100 µM (inactive) | 59 µM (inactive) | > 100 µM (inactive) | > 100 µM (inactive)
COc1ccc(-c2c(C#N)c(O)n(NS(=O)(=O)c3ccc(C)cc3)c(=O)c2C#N)cc1 | 99.3 µM (inactive) | 35.8 µM (inactive) | – | 91.8 µM (inactive) | > 100 µM (inactive) | 75 µM (inactive) | 57.4 µM (inactive) | > 100 µM (inactive) | 66.5 µM (inactive) | 82.8 µM (inactive) | 70.8 µM (inactive) | 70.6 µM (inactive) | 20.5 µM (inactive) | > 100 µM (inactive) | 70 µM (inactive) | 47.9 µM (inactive) | 67.8 µM (inactive) | – | > 100 µM (inactive) | > 100 µM (inactive)
COC(=O)CCC(=O)N1C/C(=C\c2ccccc2)C(=O)/C(=C/c2ccccc2)C1 | 12.6 µM (inactive) | 1.79 µM (inactive) | – | 3.64 µM (inactive) | 1.98 µM (inactive) | – | 0.191 µM (active) | 1.75 µM (inactive) | 2.06 µM (inactive) | 2.31 µM (inactive) | 3.94 µM (inactive) | 2.34 µM (inactive) | 1.83 µM (inactive) | – | 3.1 µM (inactive) | 1.97 µM (inactive) | 2.94 µM (inactive) | 1.18 µM (inactive) | 2.29 µM (inactive) | –
Cn1nc(-c2ccccc2NC(=O)C(F)(F)F)c(=O)n(C)c1=S | 69.7 µM (inactive) | 63.2 µM (inactive) | – | 50.5 µM (inactive) | 19.8 µM (inactive) | – | 34.5 µM (inactive) | 33.6 µM (inactive) | 39.9 µM (inactive) | 12 µM (inactive) | 31.3 µM (inactive) | 37.8 µM (inactive) | 22.6 µM (inactive) | – | 23.9 µM (inactive) | 24.5 µM (inactive) | 29.4 µM (inactive) | 18.1 µM (inactive) | 5.89 µM (inactive) | –
CC(=O)n1c2c(c(=O)n1-c1ccccc1)[S+]([O-])CCC2 (configuration not stated) | 11.1 µM (inactive) | 99.1 µM (inactive) | – | > 92.9 µM (inactive) | 49.7 µM (inactive) | – | 33.3 µM (inactive) | 55.5 µM (inactive) | 15.6 µM (inactive) | > 100 µM (inactive) | > 95.7 µM (inactive) | > 56.4 µM (inactive) | 1.25 µM (inactive) | – | > 100 µM (inactive) | 46.8 µM (inactive) | 20.4 µM (inactive) | 4.53 µM (inactive) | 51.4 µM (inactive) | –
COc1cc(-c2cc(CCC(=O)Nc3ccccc3[N+](=O)[O-])n(-c3ccc([N+](=O)[O-])cc3[N+](=O)[O-])n2)ccc1O | > 10 µM (inactive) | > 10 µM (inactive) | – | > 10 µM (inactive) | > 10 µM (inactive) | – | > 10 µM (inactive) | > 10 µM (inactive) | > 10 µM (inactive) | > 10 µM (inactive) | > 10 µM (inactive) | > 10 µM (inactive) | > 10 µM (inactive) | – | > 10 µM (inactive) | 70.6 µM (inactive) | > 10 µM (inactive) | > 10 µM (inactive) | 89.9 µM (inactive) | –
COc1ccc(-c2cc(O)c3cc4c(cc3n2)OCO4)cc1OC | > 100 µM (inactive) | > 100 µM (inactive) | – | > 100 µM (inactive) | > 100 µM (inactive) | – | > 100 µM (inactive) | > 100 µM (inactive) | > 100 µM (inactive) | > 100 µM (inactive) | > 100 µM (inactive) | > 100 µM (inactive) | > 100 µM (inactive) | – | > 100 µM (inactive) | > 100 µM (inactive) | > 100 µM (inactive) | 45 µM (inactive) | > 100 µM (inactive) | –
O=C(O/N=C1/CCC/C1=C\c1ccccc1)c1ccc([N+](=O)[O-])cc1 | 96.6 µM (inactive) | > 100 µM (inactive) | – | > 100 µM (inactive) | > 100 µM (inactive) | – | > 100 µM (inactive) | > 100 µM (inactive) | 84.7 µM (inactive) | > 100 µM (inactive) | > 100 µM (inactive) | > 100 µM (inactive) | > 100 µM (inactive) | – | > 100 µM (inactive) | > 100 µM (inactive) | 89.3 µM (inactive) | > 100 µM (inactive) | 31.6 µM (inactive) | –
CCOC(=O)C1Cc2c(ccc(OC)c2OC)C(=O)C1N (configuration not stated) | > 100 µM (inactive) | > 100 µM (inactive) | – | > 100 µM (inactive) | > 100 µM (inactive) | – | > 100 µM (inactive) | > 100 µM (inactive) | > 100 µM (inactive) | > 100 µM (inactive) | 21.5 µM (inactive) | > 100 µM (inactive) | 91.4 µM (inactive) | – | > 100 µM (inactive) | > 100 µM (inactive) | > 100 µM (inactive) | 41.2 µM (inactive) | > 100 µM (inactive) | –
O=[N+]([O-])c1ccc(-c2cnc3ccccn23)cc1 | > 100 µM (inactive) | – | – | > 100 µM (inactive) | > 100 µM (inactive) | – | > 100 µM (inactive) | 62.4 µM (inactive) | 24.2 µM (inactive) | > 100 µM (inactive) | > 100 µM (inactive) | > 100 µM (inactive) | > 100 µM (inactive) | – | > 100 µM (inactive) | > 100 µM (inactive) | > 100 µM (inactive) | 84.7 µM (inactive) | 30.6 µM (inactive) | –
C[N+](C)(C)CC(=O)N/N=C/c1oc(-c2c(O)ccc3ccccc23)c(-c2c(O)ccc3ccccc23)c1[N+](=O)[O-] | – | 11 µM (inactive) | 15.4 µM (inactive) | 21.5 µM (inactive) | 17.3 µM (inactive) | – | 21.5 µM (inactive) | 24.7 µM (inactive) | 11.2 µM (inactive) | 21.3 µM (inactive) | 21.9 µM (inactive) | 11.4 µM (inactive) | 14.5 µM (inactive) | – | 19.1 µM (inactive) | 3.31 µM (inactive) | 14.7 µM (inactive) | 15.2 µM (inactive) | 14.7 µM (inactive) | –
CC[N+](C)(C)c1ccc(C(=C2C=CC(=[N+](C)C)C=C2)c2ccc(N(C)C)cc2)cc1 | 8.34 µM (inactive) | 12 µM (inactive) | – | 4.45 µM (inactive) | 11 µM (inactive) | – | 4.41 µM (inactive) | 23.7 µM (inactive) | 37.3 µM (inactive) | 16.9 µM (inactive) | 4.97 µM (inactive) | 22.8 µM (inactive) | 12.4 µM (inactive) | – | 12.8 µM (inactive) | 10.8 µM (inactive) | 12.8 µM (inactive) | 10.6 µM (inactive) | 4.76 µM (inactive) | –
COc1cccc(/C=N/NC(N)=O)c1O | > 100 µM (inactive) | > 100 µM (inactive) | – | > 100 µM (inactive) | > 100 µM (inactive) | – | > 100 µM (inactive) | > 100 µM (inactive) | > 100 µM (inactive) | > 100 µM (inactive) | > 100 µM (inactive) | > 100 µM (inactive) | > 100 µM (inactive) | – | > 100 µM (inactive) | > 100 µM (inactive) | > 100 µM (inactive) | 0.0603 µM (active) | > 100 µM (inactive) | –

Source: ChEMBL document CHEMBL1201862, “PubChem BioAssay data set” (2004)
